From paper PMC5674900, “Identification of new channels by systematic analysis of the mitochondrial outer membrane” (The Journal of Cell Biology, 2017)
Positions count from the first letter of the chain named.

How the values were obtained:
Ayr1 [1] = target: T1, Ayr1 (Saccharomyces cerevisiae, UniProt P40471, G20A/G22A); assay: planar lipid bilayer electrophysiology, reconstituted channel; format: biochemical; conditions: 1 mM NADPH; symmetrical 250 mM KCl, pH 7.0; activator of channel gating; NADPH-binding motif mutant, effect mostly abolished
T1 construct: ORF with His10 tag, expressed in E. coli BL21(DE3), purified in urea, reconstituted into liposomes / planar lipid bilayer; 33 kD
T1 sequence (P40471 1-297 G20A/G22A): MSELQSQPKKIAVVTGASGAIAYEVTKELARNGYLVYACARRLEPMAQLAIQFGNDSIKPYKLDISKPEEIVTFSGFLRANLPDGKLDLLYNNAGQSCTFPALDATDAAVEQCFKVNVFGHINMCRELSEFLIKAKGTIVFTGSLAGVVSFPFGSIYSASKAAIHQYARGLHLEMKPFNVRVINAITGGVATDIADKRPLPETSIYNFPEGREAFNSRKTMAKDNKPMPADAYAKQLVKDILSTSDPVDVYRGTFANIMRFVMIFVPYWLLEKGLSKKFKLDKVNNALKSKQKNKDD

Ayr1 [2] = target: T2, Ayr1 (Saccharomyces cerevisiae, UniProt P40471); assay: as above; format: biochemical; conditions: 1 mM NADPH; symmetrical 250 mM KCl, pH 7.0; activator of channel gating
T2 construct: ORF with His10 tag, expressed in E. coli BL21(DE3), purified in urea, reconstituted into liposomes / planar lipid bilayer; 33 kD
T2 sequence (P40471 1-297): T1 sequence (P40471 1-297 G20A/G22A) with A20G, A22G

NC(=O)C1=CN([C@@H]2O[C@H](COP(=O)(O)OP(=O)(O)OC[C@H]3O[C@@H](n4cnc5c(N)ncnc54)[C@H](OP(=O)(O)O)[C@@H]3O)[C@@H](O)[C@H]2O)C=CC1 [NADPH]
planar lipid bilayer electrophysiology, reconstituted channel (Ayr1 [1]): the effect of NAPDH was mostly abolished, and no increase of the gating frequency was observed
planar lipid bilayer electrophysiology, reconstituted channel (Ayr1 [2]): NADPH strongly stimulated the frequency of gating between the distinct states
